Assay results taken from US20230116196A1, “METHOD OF TREATING CNS DISORDERS WITH NEU[…] GABAERGIC COMPOUNDS” (priority 2017, published 2023).

How the values were obtained:
[1] = system: DGGCs from mutant mice; assay: sIPSC decay time in DGGCs from mutant mice; type: cell-based, mouse; details: 100 nM ALLO
Protocol: The ability of 100 nM ALLO to modulate the decay time of sIPSCs was compared in DGGCs from WT and S940A mice as detailed in FIG. 2.

[2] = system: GT1-7 cells; assay: Immunoblot of β3 S408/9 phosphorylation in GT1-7 cells; type: cell-based; details: 100 nM, 15 min
Protocol: GT1-7 cells that co-express mPRα and GABAARs were used to measure the level of phosphorylation at S408/9 position of β3 subunit. […] Expression of mPRα was confirmed using western blotting.
GT1-7 cells were treated with 100 nM AllO or P4 for 15 min and immunoblotted with antibodies specifically recognizing β3, actin, and […] β3 subunit (pS408/9). The ratio of pS408/9 β3 subunit immunoreactivity were then normalized to levels seen in vehicle treated to controls, n=6.

[3] = system: GT1-7 cells; assay: Patch-clamp of GABA-induced currents (IGABA) in GT1-7 cells; type: cell-based; details: 100 nM in electrolyte, GABA EC20, 20 min time course
Protocol: Patch-clamp recordings were made from GT1-7 cells. The magnitude of the GABA-induced currents (IGABA) at EC20 agonists concentration were then measured, in the presence of control electrolyte or that supplemented with 100 nM ALLO, or 100 nM ORG OD 02-0 over a time course of 20 min.

[4] = system: dentate gyrus granule cells (DGGCs); assay: sIPSCs in DGGCs after 15 min NAS exposure and >30 min wash; type: cell-based, mouse
Protocol: Bar graphs show average sIPSC decay and amplitude.
For tonic current measurements, an all-points histogram was plotted for a 10 s period before and during 100 μM picrotoxin application, once the response reached a plateau level. Recordings with unstable baselines were discarded. Fitting the histogram with a Gaussian distribution gave the mean baseline current amplitude and the difference between the amplitudes before and during picrotoxin was considered to be the tonic current. The negative section of the all-points histogram which corresponds to the inward IPSCs was not fitted with a Gaussian distribution (Kretschmannova et al., 2013; Nusser and Mody, 2002). Series resistance and whole-cell capacitance were continually monitored and compensated throughout the course of the experiment. Recordings were eliminated from data analysis if series resistance increased by >20%. Spontaneous inhibitory post-synaptic currents (sIPSCs) were analyzed using the mini-analysis software (version 5.6.4; Synaptosoft, Decatur, Ga.). […] Only recordings with a minimum of 200 events fitting these criteria were analyzed. sIPSCs amplitude, and frequency from each experimental condition was pooled and expressed as mean±SEM. To measure sIPSC decay, 100 consecutive events were averaged and the decay was fitted to a double exponential and the weighted decay constant (tw) was determined. […]

[5] = system: GABAA receptor α4 subunit S443; assay: Immunoblot of α4 S443 phosphorylation in hippocampal slices; type: cell-based, mouse; details: 100 SGE-516 for 5 min
Protocol: Treatment of hippocampal slices with SGE-516 increased the phosphorylation of S408/9 measured using pS408/9 antibodies. To produce antibodies specific for phosphorylated S443, rabbits were injected with a synthetic peptide corresponding to residues […] of the murine α4 subunit in which the serine residue corresponding to S443 was chemically phosphorylated; […]. Hippocampal slices were treated with vehicle (Con), or SGE-516 for 20 min. Slices were immunoblotted with pS408/9, β3, or actin antibodies. The ratio of pS408/9/β3 immunoreactivity was then normalized to control slices (100%=the line).
Affinity purified pS443 was used to immunoblot varying concentrations of the immunizing phosphor-peptide (PP). pS443 was used to immunoblot extracts of hippocampal slices treated without preadsorption (0), preadsorbed with the dephosphorylated (DP), or phosphorylated antigen (PP). […] Moreover, the detection of this band was blocked by the phospho—but not the dephospho-antigen (FIG. 7B).
Hippocampal slices were treated with vehicle (Con) or 100 SGE-516 for 5 min and then immunoblotted with pS443 and α4 antibodies as indicated. pS443 immunoreactivity in hippocampal slices was increased by exposure to SGE-516, while total α4 levels were unaffected (FIG. 7C).

[6] = system: GABAA receptor α4 S443 and β3 S408/9; assay: Phosphorylation of S443 and S408/9 in brains of mice after IP injection; type: in vivo, mouse; details: 5 mg/kg IP, 30 min after treatment
Protocol: C57/B16 mice injected with SGE-516 (5 mg/kg IP), or vehicle. 30 min after the treatment mice were sacrificed by microwave irradiation. SDS-soluble hippocampal extracts were then immunoblotted with pS443, α4, pS408/9, or β3 subunit antibodies.

[7] = system: DGGCs from S408/9A mice; assay: Sustained effect on tonic current in DGGCs from S408/9A mice; type: cell-based, mouse; details: 100 nM, washout
[8] = system: GABAARs containing the α4 and β subunits, S408/9A mice; assay: Biotinylation: cell surface levels of GABAARs in hippocampal slices from S408/9A mice; type: cell-based, mouse; details: 100 nM, 20 min
Protocol: Consistent with the examples above, hippocampal slices from WT and S408/9A mice were treated for 20 min with 100 nM SGE-516 or vehicle (Con) and subjected to biotinylation followed by immunoblotting with β and α4 subunit antibodies. The ratio of surface/total (S/T) immunoreactivity was then normalized to levels seen in control (100%).

| SMILES | sIPSC decay time in the mutant mice [1] | S408/9 phosphorylation in GT1-7 cells [2] | GABA-evoked currents recorded from GT1-7 cells [3] | SGE-516 enhancement of sIPSC amplitude in presence of GFX ([4]; 100 nM SGE-516 with GFX) | sIPSC amplitude following exposure and wash ([4]; 100 nM, 15 min, >30 min wash) | pS443 immunoreactivity in hippocampal slices [5] | total α4 levels [5] | phosphorylation of S443 and S408/9 in the brains of mice [6] | tonic current in S408/9A mice [7] | increase of plasma membrane levels of GABAARs in slices from S408/9A mice [8] |
| --- | --- | --- | --- | --- | --- | --- | --- | --- | --- | --- |
| CC(=O)[C@H]1CC[C@H]2[C@@H]3CC[C@H]4C[C@H](O)CC[C@]4(C)[C@H]3CC[C@]12C [ALLO, Allopregnanolone] | did not increase | increase | sustained increases |  |  |  |  |  |  |  |
| C[C@@]1(O)CC[C@@]2(C)[C@H](CC[C@@H]3[C@@H]2CC[C@]2(C)[C@@H](C(=O)Cn4nccn4)CC[C@@H]32)C1 [SGE-516] |  |  |  | significantly reduced | significantly enhanced | increased | unaffected | increased | did not modify | not seen |
